Laboratory results from patent publication US11225480B2, “Malic enzyme inhibitors” (SUN PHARMA ADVANCED RESEARCH COMPANY LTD, priority 2019, dated 2022).

How the values were obtained:
Format in all cases: biochemical
human ME2 enzyme = human ME2 enzyme (Homo sapiens, UniProt P23368); test: ME2 inhibition assay (diaphorase/resazurin coupled fluorescence); conditions: 10 μM compound concentration; read-out: Malic Enzyme 2 % inhibition (10 μM)
Experimental: (§1) ME2 catalyzes the oxidative decarboxylation of malate to pyruvate with conversion of the co-factor β-NAD+ to β-NADH. In the fluorescence assay, a coupled reaction is set up where in an enzyme, Diaphorase, utilizes NADH generated by ME2, to convert the dye resazurin to a fluorescent molecule resorufin. Resorufin has a characteristic fluorescence with excitation/emission at 540/600 nm (SLAS Discov., 2017 April 1:2472555217706649).
The enzyme activity inhibition assay is set up in a 200 μL final reaction volume in a 96-well plate. As per the experimental design, 2 μL of the compounds at 100× the desired concentration (10 μM) in DMSO were added to the respective wells with 178 μL of assay buffer (50 mM Tris-HCl pH 7.5, 10 mM MnCl2, 7 mM L-malate, 50 μM Resazurin and 0.025 mg/ml Diapharose). The 96-well plate was incubated on a plate shaker at room temperature for 15 minutes protected from light. The well contents were gently mixed by adding 10 μL of 60 nM human ME2 enzyme to the wells and the plate was incubated on a shaker at room temperature for 5 minutes protected from light. Suitable ‘enzyme only’ and ‘no enzyme’ controls were included in the experiment. The enzymatic reaction was started by adding 10 μL of 2 mM β-NAD+. The reaction was gently mixed and the plate was initially left on a shaker at room temperature for −7 minutes protected from light. Later, the plate was incubated without shaking at room temperature for 2 hours. At the end of 2 hours, the fluorescence of the wells was measured at excitation 540 nm and emission 600 nm. The % enzyme activity of the compounds is obtained by normalizing the data with enzyme only (100%) and no enzyme controls (0%) using GraphPad Prism software 7.04.

human ME1 enzyme = target: T1, human ME1 enzyme (Homo sapiens, UniProt P48163); test: ME1 inhibition assay (diaphorase/resazurin coupled fluorescence); conditions: 10 μM compound concentration; read-out: Malic Enzyme 1 % inhibition (10 μM)
T1 sequence (P48163 1-572): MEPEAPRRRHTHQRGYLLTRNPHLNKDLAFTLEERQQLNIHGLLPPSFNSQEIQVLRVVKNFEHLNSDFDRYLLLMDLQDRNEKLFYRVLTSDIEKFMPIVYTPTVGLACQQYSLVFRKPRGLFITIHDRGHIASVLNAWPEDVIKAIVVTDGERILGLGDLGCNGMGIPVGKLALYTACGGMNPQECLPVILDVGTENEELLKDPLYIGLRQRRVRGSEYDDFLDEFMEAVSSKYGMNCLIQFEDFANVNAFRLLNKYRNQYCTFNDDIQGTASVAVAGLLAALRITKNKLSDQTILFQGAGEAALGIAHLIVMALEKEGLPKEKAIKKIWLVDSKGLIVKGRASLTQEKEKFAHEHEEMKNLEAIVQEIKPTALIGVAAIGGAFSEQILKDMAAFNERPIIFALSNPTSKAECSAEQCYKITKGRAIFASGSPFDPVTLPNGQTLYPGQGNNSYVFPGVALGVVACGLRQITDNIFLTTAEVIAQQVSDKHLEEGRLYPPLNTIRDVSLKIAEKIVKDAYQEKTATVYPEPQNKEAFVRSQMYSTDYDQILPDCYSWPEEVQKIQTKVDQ
Experimental: as §1, with “ME1” for “ME2”, “β-NADP+” for “β-NAD+”, “β-NADPH.” for “β-NADH.”, “NADPH” for “NADH”, “ME1,” for “ME2,”
The enzyme activity inhibition assay is set up in a 200 μL final reaction volume in a 96-well plate. As per the experimental design, 2 μL of the compounds at 100× the desired concentration (10 μM) in DMSO were added to the respective wells with 178 μL of assay buffer (50 mM Tris-HCl pH 7.5, 10 mM MnCl2, 2 mM L-malate, 10 μM Resazurin and 0.01 mg/ml Diapharose). The 96-well plate was incubated on a plate shaker at room temperature for 15 minutes protected from light. The well contents were gently mixed by adding 10 μL of 20 nM human ME1 enzyme to the wells and the plate was incubated on a shaker at room temperature for 5 minutes protected from light. Suitable ‘enzyme only’ and ‘no enzyme’ controls were included in the experiment. The enzymatic reaction was started by adding 10 μL of 0.3 mM D-NADP+. The reaction was gently mixed and the plate was initially left on a shaker at room temperature for −7 minutes protected from light. Later, the plate was incubated without shaking at room temperature for 2 hours. At the end of 2 hours, the fluorescence of the wells was measured at excitation 540 nm and emission 600 nm. The % enzyme activity of the compounds is obtained by normalizing the data with enzyme only (100%) and no enzyme controls (0%) using GraphPad Prism software 7.04.

human ME3 enzyme = target: T2, human ME3 enzyme (Homo sapiens, UniProt Q16798); test: ME3 inhibition assay (diaphorase/resazurin coupled fluorescence); conditions: 10 μM compound concentration; read-out: Malic Enzyme 3 % inhibition (10 μM)
T2 sequence (Q16798 1-604): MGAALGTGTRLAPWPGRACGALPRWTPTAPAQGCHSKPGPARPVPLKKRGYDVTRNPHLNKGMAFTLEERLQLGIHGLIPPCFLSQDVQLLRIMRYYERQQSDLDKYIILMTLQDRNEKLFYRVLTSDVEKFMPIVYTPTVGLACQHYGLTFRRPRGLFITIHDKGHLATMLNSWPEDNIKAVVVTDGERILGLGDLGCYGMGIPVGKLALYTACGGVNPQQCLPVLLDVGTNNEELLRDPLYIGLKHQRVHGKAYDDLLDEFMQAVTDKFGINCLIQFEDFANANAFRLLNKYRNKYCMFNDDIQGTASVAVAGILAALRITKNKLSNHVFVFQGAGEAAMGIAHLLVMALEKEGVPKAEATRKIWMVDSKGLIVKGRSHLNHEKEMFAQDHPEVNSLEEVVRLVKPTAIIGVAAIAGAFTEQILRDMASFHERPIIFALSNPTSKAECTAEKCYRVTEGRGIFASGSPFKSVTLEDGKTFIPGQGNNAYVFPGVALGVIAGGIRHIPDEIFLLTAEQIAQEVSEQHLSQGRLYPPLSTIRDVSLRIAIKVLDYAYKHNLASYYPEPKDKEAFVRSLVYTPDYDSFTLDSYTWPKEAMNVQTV
In short: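 Coupled read-out: NADPH made by human ME3 (20 nM stock) drives diaphorase conversion of resazurin (50 μM) to resorufin; buffer 50 mM Tris-HCl pH 7.5, 10 mM MnCl2, 3 mM L-malate.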

Chain of human ME2 enzyme (P23368 19-584): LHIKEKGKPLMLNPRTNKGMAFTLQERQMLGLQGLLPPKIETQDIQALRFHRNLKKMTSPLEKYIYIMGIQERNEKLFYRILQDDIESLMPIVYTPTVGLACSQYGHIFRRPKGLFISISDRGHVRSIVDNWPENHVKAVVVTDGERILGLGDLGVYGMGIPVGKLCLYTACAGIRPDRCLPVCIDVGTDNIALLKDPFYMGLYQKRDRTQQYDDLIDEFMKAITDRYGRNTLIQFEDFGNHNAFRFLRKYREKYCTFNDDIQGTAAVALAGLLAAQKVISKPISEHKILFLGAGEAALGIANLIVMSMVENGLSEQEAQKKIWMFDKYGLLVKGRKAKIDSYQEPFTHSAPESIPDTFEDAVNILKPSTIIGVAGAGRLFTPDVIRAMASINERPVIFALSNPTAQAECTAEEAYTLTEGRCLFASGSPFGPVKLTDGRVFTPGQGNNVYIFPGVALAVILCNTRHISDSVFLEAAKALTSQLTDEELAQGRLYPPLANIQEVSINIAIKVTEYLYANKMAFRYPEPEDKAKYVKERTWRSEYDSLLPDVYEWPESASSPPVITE

Compound	inhibition at 10 µM (human ME2 enzyme) [%]	inhibition at 10 µM (human ME1 enzyme) [%]	inhibition at 10 µM (human ME3 enzyme) [%]
C=CC(=O)NC(CC(=O)N1CCN(c2ccc(O)cn2)CC1)c1ccccc1 (stereo not drawn) [I.172, N-{3-[4-(5-Hydroxy-pyridin-2-yl)-piperazin-1-yl]-3-oxo-1-phenyl-propyl}-acrylamide]	> 90	50 to 69	> 90
O=C(CCc1cccc(C(F)(F)F)c1)N1CCN(c2ccc(O)cn2)CC1 [I.72, 1-[4-(5-Hydroxy-pyridin-2-yl)-piperazin-1-yl]-3-(3-trifluoro-methylphenyl)-propan-1-one]	70 to 89	> 90	> 90
O=C(Cc1c[nH]c2c(F)cc(F)cc12)N1CCN(c2ccc(O)cn2)CC1 [I.167, 2-(5,7-Difluoro-1H-indol-3-yl)-1-[4-(5-hydroxy-pyridin-2-yl)-piperazin-1-yl]-ethanone]	> 90	> 90	> 90
O=C(CCc1ccc(C(F)(F)F)cc1)N1CCN(c2ccc(O)cn2)CC1 [I.139, 3-(4-Trifluoro-methylphenyl)-1-[4-(5-hydroxy-pyridin-2-yl)-piperazin-1-yl]-propan-1-one]	> 90	> 90	> 90
O=C(Cc1cc(F)cc(F)c1)N1CCN(c2ccc(O)cc2)CC1 [I.148, 2-(3,5-difluoro-phenyl)-1-[4-(4-hydroxy-phenyl)-piperazin-1-yl]-ethanone]	> 90	> 90	> 90
O=C(C1CCCc2ccccc21)N1CCN(c2ccc(O)cn2)CC1 (stereo not drawn) [I.132, [4-(5-Hydroxy-pyridin-2-yl)-piperazin-1-yl]-(1,2,3,4-tetrahydro-naphthalen-1-yl)-methanone]	> 90	70 to 89	> 90
O=C(Cc1ccccc1)N1CCN(c2ccc(O)cn2)CC1 [I.6, 1-[4-(5-Hydroxy-pyridin-2-yl)-piperazin-1-yl]-2-phenyl-ethanone]	> 90	> 90	> 90
CC(C)(CC(=O)N1CCN(c2ccc(O)cn2)CC1)c1ccccc1 [I.125, 1-[4-(5-Hydroxy-pyridin-2-yl)-piperazin-1-yl]-3-methyl-3-phenyl-butan-1-one]	> 90	> 90	> 90
CN(CC(=O)N1CCN(c2ccc(O)cn2)CC1)CC12CC3CC(CC(C3)C1)C2 [I.96, 2-[1-Adamantyl-methyl-(methyl)-amino]-1-[4-(5-hydroxy-2-pyridyl)-piperazin-1-yl]ethanone]	70 to 89	70 to 89	> 90
O=C(CCc1cc(F)c(F)c(F)c1)N1CCN(c2ccc(O)cn2)CC1 [I.170, 1-[4-(5-Hydroxy-pyridin-2-yl)-piperazin-1-yl]-3-(3,4,5-trifluoro-phenyl)-propan-1-one]	> 90	> 90	> 90
O=C(CCc1cccc2ccccc12)N1CCN(c2ccc(O)cc2)CC1 [I.46, 1-[4-(4-Hydroxy-phenyl)-piperazin-1-yl]-3-naphthalen-1-yl-propan-1-one]	> 90	> 90	> 90
O=C(CCC1CC1)N1CCN(c2ccc(O)cn2)CC1 [I.140, 3-Cyclo-propyl-1-[4-(5-hydroxy-2-pyridyl)-piperazin-1-yl]propan-1-one]	> 90	> 90	> 90
O=C(c1c[nH]c2ccccc12)N1CCN(c2ccc(O)cc2)CC1 [I.2]	> 90	> 90	> 90
O=C(c1c[nH]c2ccccc2c1=O)N1CCN(c2ccc(O)cn2)CC1 [I.54, 3-[4-(5-Hydroxy-2-pyridyl)-piperazine-1-carbonyl]-1H-quinolin-4-one]	50 to 69	70 to 89	> 90
O=C(N1CCN(c2ccc(O)cn2)CC1)C(O)(c1ccccc1)C1CCCCC1 (stereo not drawn) [I.95, 2-cyclohexyl-2-hydroxy-1-[4-(5-hydroxy-2-pyridyl)piperazin-1-yl]-2-phenyl-ethanone]	70 to 89	70 to 89	> 90
Cc1[nH]c2ccc(Cl)cc2c1CC(=O)N1CCN(c2ccc(O)cn2)CC1 [I.175, 2-(5-Chloro-2-methyl-1H-indol-3-yl)-1-[4-(5-hydroxy-pyridin-2-yl)-piperazin-1-yl]-ethanone]	> 90	> 90	> 90
O=C(CCc1ccccc1)N1CCN(c2ccc(O)cn2)CC1 [I.45, 1-[4-(5-hydroxy-pyridin-2-yl)-piperazin-1-yl]-3-phenyl-propan-1-one]	70 to 89	> 90	> 90
O=C(O)c1ccccc1CCC(=O)N1CCN(c2ccc(O)cn2)CC1 [I.141, 2-{3-[4-(5-Hydroxy-pyridin-2-yl)-piperazin-1-yl]-3-oxo-propyl}-benzoic acid]	> 90	70 to 89	> 90
O=C(CCc1cccs1)N1CCN(c2ccc(O)cn2)CC1 [I.116, 1-[4-(5-Hydroxy-pyridin-2-yl)-piperazin-1-yl]-3-thiophen-2-yl-propan-1-one]	> 90	> 90	> 90
O=C(Cc1c[nH]c2ccc(F)cc12)N1CCN(c2ccc(O)cn2)CC1 [I.131, 2-(5-fluoro-1H-indol-3-yl)-1-[4-(5-hydroxypyridin-2-yl)-piperazin-1-yl]-ethanone]	> 90	> 90	> 90
